In patent US20250221996A1, “HETEROCYCLIC COMPOUNDS, COMPOSITIONS THEREOF, AND METHODS OF TREATMENT THEREWITH” (BeiGene, Ltd., priority 2022, published 2025):

These molecules were tested on pERK1/2(THR202/TYR204) level in AsPC-1 cells (assay: pERK assay (HTRF) in AsPC-1 cell line). Conditions: 2 h compound treatment.
Type: cell-based
Experimental: AsPC-1 cell line was used in this study. Cells were maintained in RPMI-1640 supplemented with 10% fetal bovine serum (Thermo Fisher), 50 units/mL penicillin and streptomycin (Thermo Fisher) and kept at 37° C. in a humidified atmosphere of 5% CO2 in air. Cells were reinstated from frozen stocks that were laid down within 30 passages from the original cells purchased. 30000 cells per well were seeded into a 96-well plate and incubated overnight. Cells were treated with a 10-point dilution series. The final compound concentration is from 0 to 10 μM. After 2 h compound treatment, cells were lysed, and the pERK1/2(THR202/TYR204) level in the cell lysates was detected by HTRF kit (Cisbio). In brief, a total of 16 μL of cell lysate from each well of a 96-well plate was transferred to a 384-well white assay plate. Lysate from each well was incubated with 2 μL of Eu3+-cryptate (donor) labeled anti-phospho-ERK1/2 and 2 μL of D2 (acceptor) labeled anti-phospho-ERK1/2 antibodies (Cisbio) overnight in dark at room temperature. When donor and acceptor are in close proximity, excitation of the donor with laser triggers a Fluorescence Resonance Energy Transfer (FRET) towards the acceptor, which in turn fluoresces at 655 nm wavelength. FRET signals were measured using a PHERAstar FSX reader (BMG Labtech). IC50 determination was performed by fitting the curve of percent inhibition versus the log of the inhibitor concentration using Dotmatics.

For `N#Cc1c(N)sc2c(F)ccc(-c3c(C(F)(F)F)cc4c(N5CC6CCC(C5)N6)nc(OCC56COC(C(F)F)(C5)C6)nc4c3F)c12` (single isomer, unassigned) [Example 1-Isomer 1, 4-(4-(3,8-diazabicyclo[3.2.1]octan-3-yl)-2-((1-(difluoromethyl)-2-oxabicyclo[2.1.1]hexan-4-yl)methoxy)-8-fluoro-6-(trifluoromethyl)quinazolin-7-yl)-2-amino-7-fluorobenzo[b]thiophene-3-carbonitrile], which IC50 is on record?
The IC50 was 2570 nM.

How did the IC50 turn out when `N#Cc1c(N)sc2c(F)ccc(-c3c(C(F)(F)F)cc4c(N5CC6CCC(C5)N6)nc(OCC56COC(C(F)F)(C5)C6)nc4c3F)c12` (single isomer, unassigned) [Example 1-Isomer 2, 4-(4-(3,8-diazabicyclo[3.2.1]octan-3-yl)-2-((1-(difluoromethyl)-2-oxabicyclo[2.1.1]hexan-4-yl)methoxy)-8-fluoro-6-(trifluoromethyl)quinazolin-7-yl)-2-amino-7-fluorobenzo[b]thiophene-3-carbonitrile] was run?
The IC50 was 84 nM.

`N#Cc1c(N)sc2c(F)ccc(-c3c(Cl)cc4c(N5CC6CCC(C5)N6)nc(OCC56COC(C5)C6)nc4c3F)c12` (single isomer, unassigned) [Example 2-Isomer 1, 4-(2-((2-oxabicyclo[2.1.1]hexan-4-yl)methoxy)-4-(3,8-diazabicyclo[3.2.1]octan-3-yl)-6-chloro-8-fluoroquinazolin-7-yl)-2-amino-7-fluorobenzo[b]thio phene-3-carbonitrile] was tested. Which IC50 did it give?
The IC50 was 160 nM.

Which IC50 does the source give for `N#Cc1c(N)sc2c(F)ccc(-c3c(Cl)cc4c(N5CC6CCC(C5)N6)nc(OCC56COC(C5)C6)nc4c3F)c12` (single isomer, unassigned) [Example 2-Isomer 2, 4-(2-((2-oxabicyclo[2.1.1]hexan-4-yl)methoxy)-4-(3,8-diazabicyclo[3.2.1]octan-3-yl)-6-chloro-8-fluoroquinazolin-7-yl)-2-amino-7-fluorobenzo[b]thio phene-3-carbonitrile] here?
Its IC50 is over 10000 nM.

With `COC1(COc2nc(N3CC4CCC(C3)N4)c3cc(C(F)(F)F)c(-c4ccc(F)c5sc(N)c(C#N)c45)c(F)c3n2)CCOC1` (single isomer, unassigned) [Example 3-Isomer 3, 4-(4-(3,8-diazabicyclo[3.2.1]octan-3-yl)-8-fluoro-2-((3-methoxytetra hydrofuran-3-yl)methoxy)-6-(trifluoromethyl)quinazolin-7-yl)-2-amino-7-fluoro benzo[b]thiophene-3-carbonitrile] as the molecule, how does the IC50 read?
The IC50 was 96 nM.

How did the IC50 turn out when `COC1(COc2nc(N3CC4CCC(C3)N4)c3cc(C(F)(F)F)c(-c4ccc(F)c5sc(N)c(C#N)c45)c(F)c3n2)CCOC1` (single isomer, unassigned) [Example 3-Isomer 4, 4-(4-(3,8-diazabicyclo[3.2.1]octan-3-yl)-8-fluoro-2-((3-methoxytetra hydrofuran-3-yl)methoxy)-6-(trifluoromethyl)quinazolin-7-yl)-2-amino-7-fluoro benzo[b]thiophene-3-carbonitrile] was run?
Its IC50 is 273 nM.

How did the IC50 turn out when `N#Cc1c(N)sc2c(F)ccc(-c3c(C(F)(F)F)cc4c(N5C6CCC5CNC6)nc(OCC56COC(C5)C6)nc4c3F)c12` (single isomer, unassigned) [Example 9-Isomer 1, 4-(2-((2-oxabicyclo[2.1.1]hexan-4-yl)methoxy)-4-(3,8-diazabicyclo[3.2.1]octan-8-yl)-8-fluoro-6-(trifluoromethyl)quinazolin-7-yl)-2-amino-7-fluorobenzo[b]thiophene-3-carbonitrile] was run?
The IC50 was over 10000 nM.

For `N#Cc1c(N)sc2c(F)ccc(-c3c(C(F)(F)F)cc4c(N5C6CCC5CNC6)nc(OCC56COC(C5)C6)nc4c3F)c12` (single isomer, unassigned) [Example 9-Isomer 2, 4-(2-((2-oxabicyclo[2.1.1]hexan-4-yl)methoxy)-4-(3,8-diazabicyclo[3.2.1]octan-8-yl)-8-fluoro-6-(trifluoromethyl)quinazolin-7-yl)-2-amino-7-fluorobenzo[b]thiophene-3-carbonitrile], which IC50 is on record?
The IC50 was 103 nM.

`N#Cc1c(N)sc2c(F)ccc(-c3c(C(F)(F)F)cc4c(N5CC6CCC(C5)N6)nc(OCC5(C#N)CCOC5)nc4c3F)c12` (single isomer, unassigned) [Example 10-Isomer 1, 3-(((7-(2-amino-3-cyano-7-fluorobenzo[b]thiophen-4-yl)-4-(3,8-diazabicyclo[3.2.1]octan-3-yl)-8-fluoro-6-(trifluoromethyl)quinazolin-2-yl)oxy)methyl)tetrahydrofuran-3-carbonitrile] was tested. Which IC50 did it give?
Its IC50 is over 10000 nM.

`N#Cc1c(N)sc2c(F)ccc(-c3c(C(F)(F)F)cc4c(N5CC6CCC(C5)N6)nc(OCC5(C#N)CCOC5)nc4c3F)c12` (single isomer, unassigned) [Example 10-Isomer 2, 3-(((7-(2-amino-3-cyano-7-fluorobenzo[b]thiophen-4-yl)-4-(3,8-diazabicyclo[3.2.1]octan-3-yl)-8-fluoro-6-(trifluoromethyl)quinazolin-2-yl)oxy)methyl)tetrahydrofuran-3-carbonitrile] was tested. Which IC50 did it give?
Its IC50 is over 10000 nM.

For `N#Cc1c(N)sc2c(F)ccc(-c3c(C(F)(F)F)cc4c(N5CC6CCC(C5)N6)nc(OCC5(C#N)CCOC5)nc4c3F)c12` (single isomer, unassigned) [Example 10-Isomer 3, 3-(((7-(2-amino-3-cyano-7-fluorobenzo[b]thiophen-4-yl)-4-(3,8-diazabicyclo[3.2.1]octan-3-yl)-8-fluoro-6-(trifluoromethyl)quinazolin-2-yl)oxy)methyl)tetrahydrofuran-3-carbonitrile], which IC50 is on record?
Its IC50 is 42 nM.

Which IC50 does the source give for `N#Cc1c(N)sc2c(F)ccc(-c3c(C(F)(F)F)cc4c(N5CC6CCC(C5)N6)nc(OCC5(C#N)CCOC5)nc4c3F)c12` (single isomer, unassigned) [Example 10-Isomer 4, 3-(((7-(2-amino-3-cyano-7-fluorobenzo[b]thiophen-4-yl)-4-(3,8-diazabicyclo[3.2.1]octan-3-yl)-8-fluoro-6-(trifluoromethyl)quinazolin-2-yl)oxy)methyl)tetrahydrofuran-3-carbonitrile] here?
The IC50 was 56 nM.

Same assay, conditions: Homo sapiens, ASPC1, 2 h, 2 h compound treatment

How did the IC50 turn out when `COC1(COc2nc(N3CC4CCC(C3)N4)c3cc(C(F)(F)F)c(-c4ccc(F)c5sc(N)c(C#N)c45)c(F)c3n2)CCOCC1` (single isomer, unassigned) [Example 4-Isomer 2, 4-(4-(3,8-diazabicyclo[3.2.1]octan-3-yl)-8-fluoro-2-((4-methoxytetrahydro-2H-pyran-4-yl)methoxy)-6-(trifluoromethyl)quinazolin-7-yl)-2-amino-7-fluorobenzo[b]thiophene-3 carbonitrile] was run?
The IC50 was 100 nM.

`N#Cc1c(N)sc2c(F)ccc(-c3c(Cl)cc4c(N5C6CCC5CNC6)nc(OCC56COC(C5)C6)nc4c3F)c12` (single isomer, unassigned) [Example 5-Isomer 2, 4-(2-((2-oxabicyclo[2.1.1]hexan-4-yl)methoxy)-4-(3,8-diazabicyclo [3.2.1]octan-8-yl)-6-chloro-8-fluoroquinazolin-7-yl)-2-amino-7-fluorobenzo[b]thio phene-3-carbonitrile] was tested. Which IC50 did it give?
Its IC50 is 44 nM.

With `COCC12CC(COc3nc(N4CC5CCC(C4)N5)c4cc(C(F)(F)F)c(-c5ccc(F)c6sc(N)c(C#N)c56)c(F)c4n3)(CO1)C2` (single isomer, unassigned) [Example 11-Isomer 2, 4-(4-(3,8-diazabicyclo[3.2.1]octan-3-yl)-8-fluoro-2-((1-(methoxymethyl)-2-oxabicyclo[2.1.1]hexan-4-yl)methoxy)-6-(trifluoromethyl)quinazolin-7-yl)-2-amino-7-fluorobenzo[b]thiophene-3-carbonitrile] as the molecule, how does the IC50 read?
The IC50 was 37 nM.
